Results from PMC6934184, “Selective DNA-PKcs inhibition extends the therapeutic index of localized radiotherapy and chemotherapy” (The Journal of Clinical Investigation, 2019).

Molecular target: T1, DAPK3 (ZIPK) (Homo sapiens, UniProt O43293)
T1 construct: purchased Thermo Fisher Scientific (Life Technologies) SelectScreen
Experiment: SelectScreen Z'LYTE
Format: biochemical
Procedure, shortened: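 NU5455 was profiled across the SelectScreen Broad panel of kinase activity and binding assays. Z'LYTE reactions such as CSF1R ran at apparent Km ATP, while the Adapta CAMK1 assay used ATP listed as 10. Values are given as percent.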

T1 sequence (O43293 whole entry): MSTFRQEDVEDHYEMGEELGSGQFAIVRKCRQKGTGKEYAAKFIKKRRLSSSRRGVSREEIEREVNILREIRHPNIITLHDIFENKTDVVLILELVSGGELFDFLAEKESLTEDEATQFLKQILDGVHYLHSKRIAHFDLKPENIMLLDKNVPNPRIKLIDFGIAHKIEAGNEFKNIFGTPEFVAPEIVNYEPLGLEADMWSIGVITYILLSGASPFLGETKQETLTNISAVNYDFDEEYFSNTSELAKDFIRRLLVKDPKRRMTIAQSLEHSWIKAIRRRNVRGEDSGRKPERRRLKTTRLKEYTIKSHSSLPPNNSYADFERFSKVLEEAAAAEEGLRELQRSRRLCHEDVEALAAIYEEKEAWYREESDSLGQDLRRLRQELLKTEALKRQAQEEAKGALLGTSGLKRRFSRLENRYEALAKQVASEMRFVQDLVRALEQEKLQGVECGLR

For `CN(C(=O)CN1CCOCC1)c1ccc2sc3c(-c4cccc5c(=O)cc(N6CC7CCC(C6)O7)oc45)cccc3c2c1` [NU5455], which inhibition at 1 µM is on record?
The inhibition at 1 µM was -3.4%.
